{"source": "patent US4512980A", "about": "“Peptide, process for preparation thereof and use thereof” (priority 1979, dated 1985)", "key": {"Mice (DDY male 5-6 W)": {"system": "Mice (DDY male 5-6 W)", "test": "Blood stream clearance of carbon", "assay_type": "in vivo", "conditions": "carbon clearance measured 24 hours later", "method": "1. Carbon suspension. Rotoring drawing ink (170 mg carbon/ml.) was diluted to 1/5 of the original concentration in saline containing 1% gelatin. 2. 0.1% aqueous sodium carbonate solution. Mice (DDY male 5-6 W) were injected via the tail vein with a dose of 0.01 ml/g body weight of carbon. Blood samples were taken by means of a pointed capillary […] calibrated to hold a 50 μl and previously washed in heparin. This was plunged into the retroorbital venous sinus at the nasal angle of the eye. The samples were removed at 3 and 6 min. The blood was immediately discharged into 3.0 ml. of the sodium carbonate solution. This hemolyzed the blood and allowed the quantitation of carbon. The samples were then read in a spectrophotometer at 660 nm, the log concentration being obtained from a previously determined standard curve. The clearance value K may be determined by plotting log carbon concentration against time according to the following relationship; [formula] in which T1 and T2 represent the time in min when the sample were withdrawn and C1 and C2 represent the concentrations of carbon in the blood at the time T1 and T2, respectively. The aqueous solution of the drug as given was administered subcutaneously to mice. Twenty four hours later, blood stream clearance of carbon was measured. K value obtained with treated mice was compared with that of control mice."}, "E. coli 22": {"system": "E. coli 22", "test": "Protective efficacy in experimental infection in mice", "assay_type": "in vivo", "conditions": "male ICR mice, E. coli 22 i.p., survival after four days", "method": "In determining the protective efficacy against experimental infections in mice, the test compound was dissolved in and diluted with sterile saline to provide prescribed concentrations of drug.\nMale ICR-strain mice, aged 4 weeks were used in groups of ten mice. E. coli 22 was cultivated overnight at 37° C. on trypticase soy agar and then were suspended in a sterile saline to obtain microbial cell concentration of 9.0×10^7 CFU/ml. Mice were inoculated intraperitoneally with 0.2 ml of the suspension. Each of the test drugs was given intraperitoneally in various doses to a group of ten mice 24 hours before challenge.\nSurvival percent were found from the number of the surviving animals after four days of injection."}}}
{"substance": "D-Lac-L-Ala-γ-D-Glu(α-OH)-(L)-[D-Lac-L-Ala-γ-D-Glu(α-OH)-(L)-mesoDAP-(D)-Gly]-(D)-mesoDAP-(L)-GlyOH [Example 13 (Step 2)]", "values": [{"measurement": "K treated/K control", "setting": "Mice (DDY male 5-6 W); dose 1 mg/mouse subcutaneously", "value": 0.6}, {"measurement": "K treated/K control", "setting": "Mice (DDY male 5-6 W); dose 100 mg/mouse subcutaneously", "value": 1.6}, {"measurement": "Survival (%)", "setting": "E. coli 22; dose 1 mg/kg intraperitoneally 24 hours before challenge", "value": 100, "unit": "%"}, {"measurement": "Survival (%)", "setting": "E. coli 22; dose 10 mg/kg intraperitoneally 24 hours before challenge", "value": 100, "unit": "%"}]}
